# Measured values taken from ChEMBL document CHEMBL1201862, “PubChem BioAssay data set” (2004).
#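 All cell lines were grown in 96-well plates and treated with compound for 48 hours. Abbreviation: GI50, concentration required for 50% inhibition of growth.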 Activity calls are given as the source filed them. Rule as the data show it: active = GI50 up to about 1.1 µM and inactive = higher.
# Assays:
# Experiment in all cases: inhibition of tumour cell growth, NCI panel, 48 h
# [1] = tested on: 786-0
# [2] = tested on: A498
# [3] = tested on: CAKI-1
# [4] = tested on: COLO 205
# [5] = tested on: EKVX
# [6] = tested on: HCC 2998
# [7] = tested on: KM12
# [8] = tested on: LOX IMVI
# [9] = tested on: M14
# [10] = tested on: MOLT-4
# [11] = tested on: NCI-H23
# [12] = tested on: NCI-H522
# [13] = tested on: OVCAR-3
# [14] = tested on: SF-539
# [15] = tested on: SK-MEL-5
# [16] = tested on: BT-549
# [17] = tested on: MDA-MB-435
# [18] = tested on: TK-10
# [19] = tested on: SNB-75
Structure (SMILES),GI50 [1],GI50 [2],GI50 [3],GI50 [4],GI50 [5],GI50 [6],GI50 [7],GI50 [8],GI50 [9],GI50 [10],GI50 [11],GI50 [12],GI50 [13],GI50 [14],GI50 [15],GI50 [16],GI50 [17],GI50 [18],GI50 [19]
Cc1ccc(S(=O)(=O)N/N=C(\C(=O)Nc2cccc([N+](=O)[O-])c2)c2nc3ccc([N+](=O)[O-])cc3nc2O)cc1,61.9 µM (inactive),17.1 µM (inactive),23.2 µM (inactive),28.2 µM (inactive),33.5 µM (inactive),30.1 µM (inactive),37.9 µM (inactive),10.4 µM (inactive),> 100 µM (inactive),24 µM (inactive),72.4 µM (inactive),5.66 µM (inactive),> 100 µM (inactive),24.6 µM (inactive),26 µM (inactive),–,–,–,–
COc1ccc2c(c1)SC1=Nc3sc4cc(OC)ccc4[n+]3CN12,29.9 µM (inactive),–,32.9 µM (inactive),2.96 µM (inactive),26.4 µM (inactive),–,11.2 µM (inactive),–,33.1 µM (inactive),4.62 µM (inactive),15.7 µM (inactive),1.38 µM (inactive),2.72 µM (inactive),42.2 µM (inactive),4.1 µM (inactive),66.8 µM (inactive),26.9 µM (inactive),51.4 µM (inactive),–
CN1CCN(CCCN2c3ccccc3Sc3ccc(C(F)(F)F)cc32)CC1,7.93 µM (inactive),13.6 µM (inactive),10.9 µM (inactive),–,14.5 µM (inactive),–,5.14 µM (inactive),4.57 µM (inactive),1.88 µM (inactive),4.6 µM (inactive),14.4 µM (inactive),–,–,7.28 µM (inactive),3.09 µM (inactive),14.5 µM (inactive),3.35 µM (inactive),–,7.24 µM (inactive)
COC(=O)C1=C(C(=O)OC)C2=S(SC3=C2CCCC3)S1 (stereo unspecified),4.11 µM (inactive),–,20 µM (inactive),23.4 µM (inactive),> 100 µM (inactive),> 100 µM (inactive),20.8 µM (inactive),2.79 µM (inactive),24.8 µM (inactive),12 µM (inactive),24.1 µM (inactive),2.2 µM (inactive),16.4 µM (inactive),25.1 µM (inactive),0.378 µM (active),–,–,30.1 µM (inactive),12.1 µM (inactive)
O=C(/C=C\c1cccc2ccccc12)c1ccc(Cl)cc1Cl,18.7 µM (inactive),> 100 µM (inactive),47.5 µM (inactive),22.4 µM (inactive),36.5 µM (inactive),32.4 µM (inactive),17.2 µM (inactive),–,19.4 µM (inactive),28.5 µM (inactive),40.6 µM (inactive),19.2 µM (inactive),20.2 µM (inactive),25.8 µM (inactive),36.7 µM (inactive),–,–,97.1 µM (inactive),> 100 µM (inactive)
CO[C@@H]1C[C@H]2[C@@H]3CC[C@H]([C@H](C)COC(C)=O)[C@@]3(C)CC[C@@H]2[C@@]2(C)CC[C@H]3C[C@]312,> 100 µM (inactive),> 100 µM (inactive),> 100 µM (inactive),34 µM (inactive),> 100 µM (inactive),> 100 µM (inactive),> 100 µM (inactive),> 100 µM (inactive),> 100 µM (inactive),> 100 µM (inactive),> 100 µM (inactive),> 100 µM (inactive),> 100 µM (inactive),> 100 µM (inactive),> 100 µM (inactive),–,> 100 µM (inactive),> 100 µM (inactive),> 100 µM (inactive)
CC(=O)CC(O)(C(F)(F)Cl)C(F)(Cl)Cl (stereo unspecified),> 10 µM (inactive),> 10 µM (inactive),> 10 µM (inactive),> 10 µM (inactive),> 10 µM (inactive),> 10 µM (inactive),> 10 µM (inactive),> 10 µM (inactive),> 10 µM (inactive),–,> 10 µM (inactive),> 10 µM (inactive),> 10 µM (inactive),> 10 µM (inactive),> 10 µM (inactive),–,> 10 µM (inactive),> 10 µM (inactive),> 10 µM (inactive)
CCOC(=O)c1c(C)n(Cc2ccccc2)c(=O)c2ccccc2c(=O)c2c(=O)ccc(=O)c1=2,27 µM (inactive),> 100 µM (inactive),34.7 µM (inactive),43.4 µM (inactive),> 100 µM (inactive),38.5 µM (inactive),> 100 µM (inactive),25.2 µM (inactive),39.1 µM (inactive),54.7 µM (inactive),62.8 µM (inactive),23.9 µM (inactive),34.1 µM (inactive),48.2 µM (inactive),> 100 µM (inactive),–,> 100 µM (inactive),29.1 µM (inactive),> 100 µM (inactive)
CC1=CCC[C@@]2(C)C(CC[C@@H]2C(C)/C=C/C(C)C)c2ccc(cc2C(=O)O)C[C@@H](O)CC1 (stereo partly specified),14.6 µM (inactive),20.2 µM (inactive),17 µM (inactive),–,–,9.93 µM (inactive),11 µM (inactive),4.55 µM (inactive),16.9 µM (inactive),11.6 µM (inactive),> 10 µM (inactive),13.5 µM (inactive),13.7 µM (inactive),8.55 µM (inactive),3.59 µM (inactive),–,–,12.5 µM (inactive),13.8 µM (inactive)
COc1cc2oc(=O)cc(C)c2cc1OC,> 100 µM (inactive),40.2 µM (inactive),–,> 100 µM (inactive),> 100 µM (inactive),–,> 100 µM (inactive),> 100 µM (inactive),> 100 µM (inactive),> 100 µM (inactive),> 100 µM (inactive),–,> 100 µM (inactive),> 100 µM (inactive),> 100 µM (inactive),–,> 100 µM (inactive),> 100 µM (inactive),> 100 µM (inactive)
CCc1cccc(C(C)C)c1NC1=C([n+]2ccc(C)cc2)C(=O)c2ccccc2C1=O.[O-][Cl+3]([O-])([O-])[O-],0.481 µM (active),2.75 µM (inactive),1.13 µM (inactive),1.1 µM (active),0.817 µM (active),3.21 µM (inactive),2.77 µM (inactive),0.673 µM (active),0.944 µM (active),0.3 µM (active),1.93 µM (inactive),1.32 µM (inactive),0.647 µM (active),0.895 µM (active),1.14 µM (inactive),–,1.7 µM (inactive),7.87 µM (inactive),1.75 µM (inactive)
CCN(CC)/C(SCc1ccccc1)=C(\C(Cl)=C(Cl)Cl)[N+](=O)[O-],16 µM (inactive),13.6 µM (inactive),28.2 µM (inactive),17.6 µM (inactive),22.9 µM (inactive),21.2 µM (inactive),21 µM (inactive),14.1 µM (inactive),15.9 µM (inactive),13.5 µM (inactive),17.8 µM (inactive),16.6 µM (inactive),11.7 µM (inactive),19.7 µM (inactive),16.3 µM (inactive),–,17.7 µM (inactive),19.2 µM (inactive),–
C=CCNS(=O)(=O)c1ncnc2[nH]cnc12,> 100 µM (inactive),> 100 µM (inactive),26.2 µM (inactive),> 100 µM (inactive),> 100 µM (inactive),–,> 100 µM (inactive),67.9 µM (inactive),> 100 µM (inactive),14.2 µM (inactive),> 100 µM (inactive),> 100 µM (inactive),> 100 µM (inactive),–,> 100 µM (inactive),> 100 µM (inactive),> 100 µM (inactive),> 100 µM (inactive),> 100 µM (inactive)
CN(C)Cc1nsc(N(C)C)n1,> 100 µM (inactive),> 100 µM (inactive),> 100 µM (inactive),> 100 µM (inactive),> 100 µM (inactive),–,> 100 µM (inactive),> 100 µM (inactive),> 100 µM (inactive),–,> 100 µM (inactive),> 100 µM (inactive),> 100 µM (inactive),> 100 µM (inactive),> 100 µM (inactive),> 100 µM (inactive),> 100 µM (inactive),> 100 µM (inactive),> 100 µM (inactive)
COc1cc(C2OC(N)=C(C#N)C3=C2C(C)CCC3)cc(OC)c1OC (stereo unspecified),42.6 µM (inactive),–,> 100 µM (inactive),> 100 µM (inactive),37.2 µM (inactive),–,> 100 µM (inactive),> 100 µM (inactive),> 100 µM (inactive),34.2 µM (inactive),> 100 µM (inactive),–,> 100 µM (inactive),11.9 µM (inactive),> 100 µM (inactive),> 100 µM (inactive),> 100 µM (inactive),> 100 µM (inactive),10.9 µM (inactive)
C=C(C)C1CCC2=CC(CC3(C)OC3C3=CC(C(=O)OC)=C(C1)O3)OC2=O (stereo unspecified),> 100 µM (inactive),> 100 µM (inactive),> 100 µM (inactive),–,> 100 µM (inactive),–,98.4 µM (inactive),> 100 µM (inactive),> 100 µM (inactive),36.9 µM (inactive),> 100 µM (inactive),85.9 µM (inactive),> 100 µM (inactive),73.3 µM (inactive),72.3 µM (inactive),> 100 µM (inactive),> 100 µM (inactive),> 100 µM (inactive),56.2 µM (inactive)
